What all share (assay): DTP human tumour cell line panel, 48 h
Assay [1] concerns A549 NSCLC.
In assay [2] the test system is ACHN renal.
Assay [3] deals with HT29 colon.
Assay [4] has as its system K-562 leukemia.
Assay [5] relates to NCI-H23 lung.
The subject of assay [6] is SF-539 CNS.
The test system of assay [7] is SK-OV-3 ovarian.
For assay [8], the system named is SNB-75 CNS.
Assay [9] concerns SR leukemia.
In assay [10] the test system is UACC-62 melanoma.
For assay [11], the system named is HOP-92 NSCLC.
The subject of assay [12] is NCI-H460 lung.
The subject of assay [13] is OVCAR-5 ovarian.
Assay [14] has as its system HCC-2998 colon.

From PubChem BioAssay (NCI) come the findings set out here.

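Growth conditions: 96-well plates. Treatment: test compound, 48 hours, 5 concentrations. Analysis: linear interpolation between bracketing concentrations; unreached endpoints set to highest concentration. TGI is the concentration that stops growth completely.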

Regarding `C[N+](C)(C)CC1CCC/C1=N\OC(=O)c1ccccc1` (stereo not drawn), the TGI in [1], in assay [2], in assay [3], in assay [4], in assay [5] and in assay [6] was above 100 µM in each case. Moreover, the TGI in assay [7], in assay [8], in assay [9] and in assay [10] was above 100 µM throughout.

With `COc1ccc(C(C#N)NNC(=O)Cc2ccccc2)cc1OC` (stereo not drawn), the TGI in assay [1], in [2], in assay [11], in assay [3], in [4] and in assay [5] was above 100 µM throughout. Moreover, the TGI in assay [12], in assay [13], in assay [6], in assay [7], in assay [8] and in [9] was above 100 µM each time. This compound yielded a TGI in [10] above 100 µM.

As for `COc1ccc(/C=C(\C(C)=O)C(=O)Nc2ccccc2)cc1`, the TGI in [1], in assay [2], in assay [14], in [11], in assay [3] and in [4] was above 100 µM throughout. Moreover, the concentration for total growth inhibition (TGI) in assay [5], in assay [12], in assay [13], in assay [6], in assay [7] and in [9] was above 100 µM in each case. In assay [10], this compound displayed a TGI above 100 µM.

As for `CC(Oc1ccc(OCC2CCCCC2)cc1)C(=O)OCC(=O)c1ccc(-c2ccccc2)cc1` (stereo not drawn), the TGI in assay [1], in assay [2], in assay [14], in assay [3], in assay [4] and in assay [5] was above 100 µM in each case. Further, the TGI in assay [12], in [6], in assay [7], in [8] and in [10] was above 100 µM throughout.

For `Cn1cnnc1Sc1c([N+](=O)[O-])ncn1C`, the TGI in assay [1] is above 100 µM; in assay [2], above 100 µM; in assay [14], above 100 µM; in assay [11], 91.2 µM; in assay [3], above 100 µM; in assay [4] it was above 100 µM. In addition, the TGI in [5], in assay [12], in assay [13], in assay [6], in assay [7] and in assay [8] was above 100 µM in each case. Moreover, the TGI in [9] and in assay [10] was above 100 µM throughout.

For `CCOC(=O)/C(=C/c1ccc(N(C)C)cc1)N(CC)CC`, the total growth inhibition concentration (TGI) in assay [1] is above 100 µM; in assay [2], above 100 µM; in assay [14], above 100 µM; in assay [11], above 100 µM; in assay [4], 65.8 µM; in assay [5] it was above 100 µM. The TGI in [13], in [6], in [7], in assay [9] and in assay [10] was above 100 µM throughout.

Turning to `C=C(C)C1CCC2(C)CC1c1c(c(C)cc3c1[nH]c1ccccc13)O2` (stereo not drawn), the TGI in assay [1], in [2], in assay [14], in [11], in assay [3] and in [4] was above 25 µM each time. Moreover, the concentration for total growth inhibition (TGI) in assay [12], in assay [13], in assay [6], in assay [7], in [9] and in assay [10] was above 25 µM throughout.

For `COC(=O)[C@@]1(C)/C(=N/NS(=O)(=O)c2ccc(C)cc2)CCC[C@@H]1C`, the TGI in assay [1], in assay [2], in assay [14], in assay [11], in assay [3] and in assay [4] was above 100 µM each time. Besides, the concentration for total growth inhibition (TGI) in [5], in assay [12], in [13], in [6], in assay [7] and in assay [8] was above 100 µM throughout. Also, the figures for the TGI in [9] and in [10] were 43.6 µM and above 100 µM, respectively.

Consider `CC(C)=CC1CC(=[N+]=[N-])C(=O)C1(C)C` (stereo not drawn), for which the TGI in assay [1] was above 100 µM; in assay [2], above 100 µM; in [14], above 100 µM; in [11], above 100 µM; in assay [3], above 31.6 µM; in [4], above 100 µM. Further, the TGI was above 100 µM in assay [5]; above 100 µM in assay [12]; above 100 µM in assay [13]; above 100 µM in assay [6]; above 100 µM in assay [7]; above 86.5 µM in [8]. The TGI in [9] was 44.4 µM; in assay [10] it was above 100 µM.

Regarding `COc1ccc(OC)c(/C=C(/C#N)c2ccccc2)c1`, the TGI in assay [1] is above 100 µM; in assay [2] it was above 100 µM; in assay [11] it was 70.2 µM; in assay [3] it was above 100 µM; in assay [4], 13.8 µM; in assay [5] it was above 100 µM. For the same compound, the concentration for total growth inhibition (TGI) was above 100 µM in assay [12]; above 100 µM in assay [13]; above 100 µM in assay [6]; above 100 µM in [7]; 32.8 µM in assay [8]; 35.8 µM in assay [10].

For `O=C(CSc1c2ccccc2nc2ccccc12)Nc1ccccc1-c1ccccc1NC(=O)CSc1c2ccccc2nc2ccccc12`, the TGI in assay [1] was above 100 µM; in assay [2], above 100 µM; in assay [14], 34.5 µM; in assay [11], 96.1 µM; in assay [3], above 100 µM; in [4] it was above 30.1 µM. For the same compound, the TGI in [5] is 61.6 µM; in assay [12], above 88.4 µM; in assay [13], above 100 µM; in assay [6] it was above 64.7 µM; in assay [7], above 100 µM; in assay [8], above 100 µM. Moreover, the results for the TGI in assay [9] and in assay [10] were above 31.6 µM and 52.7 µM, respectively.

The TGI is the concentration at which net growth stops.
